Test results taken from patent US12637413B2, “Fatty acid amide hydrolase (FAAH) cleavable prodrugs of thyromimetics and combination with peripherally restricted FAAH inhibitors” (Autobahn Therapeutics, Inc., priority 2021, dated 2026).

These compounds were tested against T1, recombinant human FAAH (rhFAAH) (Homo sapiens, UniProt O00519) (assay: FAAH substrate evaluation (acid metabolite formation)). Conditions: observed rate constant for acid metabolite formation; 0.5 ng/μL rhFAAH, 1 μM test compound, room temperature, 0-60 minutes.
T1 construct: purchased Cayman Chemical (Ann Arbor, MI, USA)
T1 sequence (O00519 1-579): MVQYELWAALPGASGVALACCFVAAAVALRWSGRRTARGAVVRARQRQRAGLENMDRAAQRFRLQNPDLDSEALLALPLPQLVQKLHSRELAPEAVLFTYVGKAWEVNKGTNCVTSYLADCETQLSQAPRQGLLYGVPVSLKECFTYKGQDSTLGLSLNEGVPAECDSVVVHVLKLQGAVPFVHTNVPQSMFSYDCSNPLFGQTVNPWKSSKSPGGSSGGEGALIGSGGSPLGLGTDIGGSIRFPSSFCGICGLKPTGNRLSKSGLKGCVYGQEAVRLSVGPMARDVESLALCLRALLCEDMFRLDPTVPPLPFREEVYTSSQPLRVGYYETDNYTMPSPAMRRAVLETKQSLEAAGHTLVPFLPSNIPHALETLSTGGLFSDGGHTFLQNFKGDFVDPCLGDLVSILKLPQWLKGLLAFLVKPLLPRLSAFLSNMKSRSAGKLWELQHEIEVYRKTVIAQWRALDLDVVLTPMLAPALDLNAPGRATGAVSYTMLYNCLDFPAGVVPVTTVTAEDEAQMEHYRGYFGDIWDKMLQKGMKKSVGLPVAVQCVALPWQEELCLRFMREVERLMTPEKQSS
Format: biochemical
Method: Purified recombinant human FAAH (rhFAAH) was purchased from Cayman Chemical (Ann Arbor, MI, USA). The total volume for each incubation was 400 μL containing a final 0.5 ng/μL rhFAAH, 1 μM test compound, 1.25% ethanol or 1 μM PF-3845 (FAAH inhibitor), and 0.1% bovine serum albumin in Tris-EDTA buffer at pH 8.0). The positive control was LL-341001. The incubation was conducted at the room temperature. At 0, 5, 15, 30 and 60 minutes, an aliquot of 30 μL reaction mixtures was removed and mixed with 300 μL acetonitrile containing 5 ng/mL terfenadine and 10 ng/mL tolbutamide as internal standards to quench the reaction. The resulting mixture was centrifuged at 4000 rpm, 4° C. for 15 minutes, and 100 μL supernatant was ready for LC-MS/MS analysis to measure the formation of acid metabolite.
Acquity Ultra Performance LC system from Waters was used for sample analysis. The chromatography was performed on a reverse phase Kinetex 2.6 μm C18 column, 2.1×30 mm, 100 Å. The mobile phase A comprised of 0.1% formic acid in water and mobile phase B comprised of 0.1% formic acid in acetonitrile with a 2-min run time at the flow rate of 0.8 mL/min for the acid metabolite from positive control or a 1.5 min run time at the flow rate of 0.9 mL/min for the acid metabolite of test compounds. The mass spectrometer (API-5500 and API Q Trap 4000 Applied Biosystems/MDS SCIEX Instruments, Framingham, MA, USA) was operated under ESI positive or negative ion MRM mode.
The formation of acid metabolite was monitored and quantified using one calibration point of 1 μM. The observed rate constant (ke) for the acid metabolite formation was calculated by plotting the metabolite concentration versus time of incubation with the slope being ke and is shown in Table 1.
In the case of `CNN(C)C(=O)COc1cc(Cl)c(Cc2ccc(O)c(C(C)C)c2)c(Cl)c1` [Compound 124, 2-(3,5-dichloro-4-(4-hydroxy-3-isopropylbenzyl)phenoxy)-N,N′-dimethylacetohydrazide], the ke is reported as “B (ke is less than 0.1 and more than 0)”.
`CCN(C)C(=O)COc1cc(Cl)c(Cc2ccc(O)c(C(C)C)c2F)c(Cl)c1` [Compound 34] was tested, and the ke was “C (ke is 0)”.
With `CC(C)CN(C)C(=O)COc1cc(Cl)c(Cc2ccc(O)c(C(C)C)c2)c(Cl)c1` [Compound 120, 2-(3,5-dichloro-4-(4-hydroxy-3-isopropylbenzyl)phenoxy)-N-isobutyl-N-methylacetamide] the ke was “C (ke is 0)”.
`CC(C)c1cc(Cc2c(Cl)cc(OCC(=O)N(C)C(C)C)cc2Cl)ccc1O` [Compound 122, 2-(3,5-dichloro-4-(4-hydroxy-3-isopropylbenzyl)phenoxy)-N-isopropyl-N-methylacetamide] was tested, and the ke was “B (ke is less than 0.1 and more than 0)”.
For `CC(C)c1c(O)ccc(Cc2c(Cl)cc(OCC(=O)NCCF)cc2Cl)c1F` [Compound 36], the ke was “A (ke is more than or equal to 0.1)”.
`CC(C)c1cc(Cc2c(Cl)cc(OCC(=O)NCCc3ccc(O)c(O)c3)cc2Cl)ccc1O` [Compound 24] was tested, and the ke was “B (ke is less than 0.1 and more than 0)”.
For `CC(C)c1cc(Cc2c(Cl)cc(OCC(=O)N[C@H](C)CO)cc2Cl)ccc1O` [Compound 9], the ke was “A (ke is more than or equal to 0.1)”.
With `CC(C)c1cc(Cc2c(Cl)cc(OCC(=O)N(C)C)cc2Cl)ccc1O` [Compound 19] the ke was “B (ke is less than 0.1 and more than 0)”.
In the case of `C#CCNC(=O)COc1cc(Cl)c(Cc2ccc(O)c(C(C)C)c2)c(Cl)c1` [Compound 5], the ke is reported as “A (ke is more than or equal to 0.1)”.
In the case of `CC(C)c1cc(Cc2c(Cl)cc(OCC(=O)N[C@@H]3C[C@@H]3F)cc2Cl)ccc1O` [Compound 111, 2-(3,5-dichloro-4-(4-hydroxy-3-isopropylbenzyl)phenoxy)-N-((1R,2S)-2-fluorocyclopropyl)acetamide], the ke is reported as “A (ke is more than or equal to 0.1)”.
For `CC(C)c1c(O)ccc(Cc2c(Cl)cc(OCC(=O)NN(C)C)cc2Cl)c1F` [Compound 45], the ke was “A (ke is more than or equal to 0.1)”.
In the case of `CC(C)c1cc(Cc2c(Cl)cc(OCC(=O)NCCN)cc2Cl)ccc1O` [Compound 12], the ke is reported as “B (ke is less than 0.1 and more than 0)”.
For `CNC(=O)COc1cc(Cl)c(Cc2ccc(O)c(C(C)C)c2F)c(Cl)c1F` [Compound 39], the ke was “B (ke is less than 0.1 and more than 0)”.
`CC(C)c1cc(Cc2c(Cl)cc(OCC(=O)N3CCCC3)cc2Cl)ccc1O` [Compound 117, 2-(3,5-dichloro-4-(4-hydroxy-3-isopropylbenzyl)phenoxy)-1-(pyrrolidin-1-yl)ethan-1-one] was tested, and the ke was “B (ke is less than 0.1 and more than 0)”.
In the case of `C=CCN(C)C(=O)COc1cc(Cl)c(Cc2ccc(O)c(C(C)C)c2)c(Cl)c1` [Compound 128, N-allyl-2-(3,5-dichloro-4-(4-hydroxy-3-isopropylbenzyl)phenoxy)-N-methylacetamide], the ke is reported as “B (ke is less than 0.1 and more than 0)”.
`CC(C)c1cc(Cc2c(Cl)cc(OCC(=O)NC[C@@H](C)O)cc2Cl)ccc1O` [Compound 7] was tested, and the ke was “B (ke is less than 0.1 and more than 0)”.
In the case of `CC(C)c1cc(Cc2c(Cl)cc(OCC(=O)NC3CCCCC3)cc2Cl)ccc1O` [Compound 105, N-cyclohexyl-2-(3,5-dichloro-4-(4-hydroxy-3-isopropylbenzyl)phenoxy)acetamide], the ke is reported as “C (ke is 0)”.
In the case of `CC(C)c1cc(Cc2c(Cl)cc(OCC(=O)Nc3ccccc3O)cc2Cl)ccc1O` [Compound 20], the ke is reported as “A (ke is more than or equal to 0.1)”.
For `CC(C)c1cc(Cc2c(Cl)cc(OCC(=O)Nc3ccnnc3)cc2Cl)ccc1O` [Compound 116, 2-(3,5-dichloro-4-(4-hydroxy-3-isopropylbenzyl)phenoxy)-N-(pyridazin-4-yl)acetamide], the ke was “A (ke is more than or equal to 0.1)”.
`Cc1noc(NC(=O)COc2cc(Cl)c(Cc3ccc(O)c(C(C)C)c3)c(Cl)c2)c1C` [Compound 103, 2-(3,5-dichloro-4-(4-hydroxy-3-isopropylbenzyl)phenoxy)-N-(3,4-dimethylisoxazol-5-yl)acetamide] was tested, and the ke was “A (ke is more than or equal to 0.1)”.
With `CC(C)c1c(O)ccc(Cc2c(Cl)cc(OCC(N)=O)cc2Cl)c1F` [Compound 35] the ke was “A (ke is more than or equal to 0.1)”.
In the case of `CC(C)c1cc(Cc2c(Cl)cc(OCC(=O)Nc3cccc(F)c3)cc2Cl)ccc1O` [Compound 25], the ke is reported as “A (ke is more than or equal to 0.1)”.
With `CON(C)C(=O)COc1cc(Cl)c(Cc2ccc(O)c(C(C)C)c2F)c(Cl)c1` [Compound 44] the ke was “A (ke is more than or equal to 0.1)”.
In the case of `CC(C)c1cc(Cc2c(Cl)cc(OCC(=O)N3CCC3)cc2Cl)ccc1O` [Compound 118, 1-(azetidin-1-yl)-2-(3,5-dichloro-4-(4-hydroxy-3-isopropylbenzyl)phenoxy)ethan-1-one], the ke is reported as “B (ke is less than 0.1 and more than 0)”.
`CC(C)c1cc(Cc2c(Cl)cc(OCC(=O)NC3COC3)cc2Cl)ccc1O` [Compound 18] was tested, and the ke was “A (ke is more than or equal to 0.1)”.
With `CNC(=O)COc1cc(F)c(Cc2ccc(O)c(C(C)C)c2)c(Cl)c1F` [Compound 42] the ke was “A (ke is more than or equal to 0.1)”.
`CC(C)c1c(O)ccc(Cc2c(Cl)cc(OCC(=O)N(C)C)cc2Cl)c1F` [Compound 32] was tested, and the ke was “A (ke is more than or equal to 0.1)”.
`C=CCNC(=O)COc1cc(Cl)c(Cc2ccc(O)c(C(C)C)c2)c(Cl)c1` [Compound 4] was tested, and the ke was “A (ke is more than or equal to 0.1)”.
In the case of `CCNC(=O)COc1cc(Cl)c(Cc2ccc(O)c(C(C)C)c2)c(Cl)c1` [Compound 2], the ke is reported as “A (ke is more than or equal to 0.1)”.
In the case of `CC(C)c1cc(Cc2c(Cl)cc(OCC(=O)Nc3ccncc3)cc2Cl)ccc1O` [Compound 115, 2-(3,5-dichloro-4-(4-hydroxy-3-isopropylbenzyl)phenoxy)-N-(pyridin-4-yl)acetamide], the ke is reported as “A (ke is more than or equal to 0.1)”.
With `CC(C)c1cc(Cc2c(Cl)cc(OCC(=O)Nc3cccnn3)cc2Cl)ccc1O` [Compound 104, 2-(3,5-dichloro-4-(4-hydroxy-3-isopropylbenzyl)phenoxy)-N-(pyridazin-3-yl)acetamide] the ke was “A (ke is more than or equal to 0.1)”.
In the case of `CC(C)c1cc(Cc2c(Cl)cc(OCC(=O)N3CCOCC3)cc2Cl)ccc1O` [Compound 133, 2-(3,5-dichloro-4-(4-hydroxy-3-isopropylbenzyl)phenoxy)-1-morpholinoethan-1-one], the ke is reported as “A (ke is more than or equal to 0.1)”.
In the case of `CC(C)c1cc(Cc2c(Cl)cc(OCC(=O)NCCCF)cc2Cl)ccc1O` [Compound 112, 2-(3,5-dichloro-4-(4-hydroxy-3-isopropylbenzyl)phenoxy)-N-(3-fluoropropyl)acetamide], the ke is reported as “A (ke is more than or equal to 0.1)”.
With `CC(C)c1cc(Cc2c(Cl)cc(OCC(=O)NCCS(=O)O)cc2Cl)ccc1O` [Compound 13] the ke was “B (ke is less than 0.1 and more than 0)”.
With `CNC(=O)COc1cc(Cl)c(Cc2ccc(O)c(C(C)C)c2)c(Cl)c1F` [Compound 37] the ke was “B (ke is less than 0.1 and more than 0)”.
For `CC#CCNC(=O)COc1cc(Cl)c(Cc2ccc(O)c(C(C)C)c2)c(Cl)c1` [Compound 106, N-(but-2-yn-1-yl)-2-(3,5-dichloro-4-(4-hydroxy-3-isopropylbenzyl)phenoxy)acetamide], the ke was “B (ke is less than 0.1 and more than 0)”.
